Where a name gives a salt, the structure may show the parent alone.
Biological target: T1, human AspH (His6-AspH315–758) (Homo sapiens, UniProt Q12797)
T1 construct: N-Terminally His6-tagged human AspH315–758 (His6-AspH315–758) was produced in Escherichia coli BL21 (DE3) cells; made in house; host or cells: Escherichia coli BL21 (DE3), pET-28a(+) vector
T1 sequence (Q12797 315-758): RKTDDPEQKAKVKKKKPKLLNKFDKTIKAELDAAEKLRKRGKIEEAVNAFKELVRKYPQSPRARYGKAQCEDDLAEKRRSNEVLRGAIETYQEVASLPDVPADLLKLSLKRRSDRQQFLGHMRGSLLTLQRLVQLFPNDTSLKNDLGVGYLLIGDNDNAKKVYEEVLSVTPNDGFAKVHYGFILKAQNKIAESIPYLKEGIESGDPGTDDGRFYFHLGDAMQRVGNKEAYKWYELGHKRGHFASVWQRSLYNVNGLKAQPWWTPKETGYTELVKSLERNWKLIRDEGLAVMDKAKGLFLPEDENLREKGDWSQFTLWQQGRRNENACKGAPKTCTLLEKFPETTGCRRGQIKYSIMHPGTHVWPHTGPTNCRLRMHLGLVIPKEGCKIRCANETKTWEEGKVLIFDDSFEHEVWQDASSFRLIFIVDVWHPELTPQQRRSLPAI
Assay: SPE-MS AspH inhibition assay (hFX-CP101-119 substrate hydroxylation)
Assay type: biochemical
Details: AspH-inhibitor screening; for Plate 1 (% inhibition): 384-well Plate 1; for Plate 1 (% conversion): 384-well Plate 1, substrate conversion; for Plate 1-duplicate (% conversion): substrate conversion

| Compound | Plate 1 (% inhibition) | Plate 1 (% conversion) | Plate 1-duplicate (% inhibition) | Plate 1-duplicate (% conversion) |
| --- | --- | --- | --- | --- |
| CC(=O)Nc1cccc(-n2c(=O)n(C3CC3)c(=O)c3c(Nc4ccc(I)cc4F)n(C)c(=O)c(C)c32)c1 [GSK1120212_Trametinib] | -0.37% | 49.92% | -2.41% | 53.24% |
| COc1ncc(-c2ccc3nccc(-c4ccnnc4)c3c2)cc1NS(=O)(=O)c1ccc(F)cc1F [GSK2126458] | 8.17% | 45.98% | 17.15% | 43.54% |
| Cc1c(Cn2c(C)nc3c(C(=O)O)cc(N4CCOCC4)cc32)cccc1C(F)(F)F [GSK2636771] | -0.51% | 49.98% | 13.40% | 45.39% |
| CCn1c(-c2nonc2N)nc2cnc(Oc3cccc(NC(=O)c4ccc(OCCN5CCOCC5)cc4)c3)cc21 [GSK 269962] | -27.40% | 62.40% | -34.23% | 69.02% |
| O=C(O)c1ccc(-c2c[nH]c3ncc(-c4ccccc4)cc23)cc1C1CCCC1 [GSK 650394] | 57.76% | 23.08% | 56.10% | 24.22% |
| C[C@@H]1C=C2C(=O)O[C@@H]3CC[C@H](C1)[C@]23O [Galiellalactone] | 15.61% | 42.54% | 8.63% | 47.76% |
| COc1cc2ncnc(Nc3ccc(F)c(Cl)c3)c2cc1OCCCN1CCOCC1 [Gefitinib] | -37.34% | 66.99% | -37.51% | 70.65% |
| Nc1ccn([C@@H]2O[C@H](CO)[C@@H](O)C2(F)F)c(=O)n1 [Gemcitabine hydrochloride] | 1.09% | 49.25% | 10.34% | 46.91% |
| CC(C)C[C@H](NC(=O)[C@@H](COC(C)(C)C)NC(=O)[C@H](Cc1ccc(O)cc1)NC(=O)[C@H](CO)NC(=O)[C@H](Cc1c[nH]c2ccccc12)NC(=O)[C@H](Cc1cnc[nH]1)NC(=O)[C@@H]1CCC(=O)N1)C(=O)N[C@@H](CCCNC(=N)N)C(=O)N1CCC[C@H]1C(=O)NNC(N)=O [Goserelin acetate] | -21.27% | 59.57% | -15.30% | 59.63% |
| O=S(=O)(c1cccc2cnccc12)N1CCCNCC1 [HA-1077 (Fasudil)] | 1.01% | 49.28% | 12.84% | 45.67% |
| COC(=O)C[C@](O)(CCCC(C)(C)O)C(=O)O[C@@H]1C(OC)=C[C@]23CCCN2CCc2cc4c(cc2[C@H]13)OCO4 [Homoharringtonine] | 6.00% | 46.98% | 5.43% | 49.35% |
| NC(=O)NO [Hydroxyurea] | 16.85% | 41.97% | 8.68% | 47.74% |
| COc1cc2c(cc1-c1c(C)noc1C)ncc1[nH]c(=O)n([C@H](C)c3ccccn3)c12 [I-BET151 (GSK1210151A)] | 3.78% | 48.01% | 1.98% | 51.06% |
| N#CC[C@H](C1CCCC1)n1cc(-c2ncnc3[nH]ccc23)cn1 [INCB018424 (free base, Ruxolitinib)] | 4.31% | 47.76% | 3.98% | 50.07% |
| CC(C)n1nc(-c2ccc3oc(N)nc3c2)c2c(N)ncnc21 [INK128] | 4.97% | 47.46% | 4.58% | 49.77% |
| CC(=O)[C@]1(O)Cc2c(O)c3c(c(O)c2[C@@H](O[C@H]2C[C@H](N)[C@H](O)[C@H](C)O2)C1)C(=O)c1ccccc1C3=O [Idarubicin HCl] | 6.62% | 46.69% | 5.28% | 49.42% |
| CC[C@H](Nc1ncnc2[nH]cnc12)c1nc2cccc(F)c2c(=O)n1-c1ccccc1 [Idelalisib] | 9.55% | 45.34% | 7.71% | 48.22% |
| O=P1(NCCCl)OCCCN1CCCl (stereo not drawn) [Ifosfamide] | 7.87% | 46.12% | 4.50% | 49.81% |
| CC(C)Cn1cnc2c(N)nc3ccccc3c21 [Imiquimod] | 3.84% | 47.98% | 5.27% | 49.43% |
| O=C(Nc1ccncc1)C(=O)c1cn(Cc2ccc(Cl)cc2)c2ccccc12 [Indibulin] | 45.36% | 28.80% | 2.65% | 50.73% |
| NC(=O)c1ccc(I)c([N+](=O)[O-])c1 [Iniparib (BSI-201, IND-71677)] | 6.32% | 46.83% | 5.00% | 49.56% |
| CCc1c2c(nc3ccc(OC(=O)N4CCC(N5CCCCC5)CC4)cc13)-c1cc3c(c(=O)n1C2)COC(=O)[C@]3(O)CC.Cl [Irinotecan hydrochloride] | -1.48% | 50.43% | 0.58% | 51.76% |
| CCc1c2c(nc3ccc(OC(=O)N4CCC(N5CCCCC5)CC4)cc13)-c1cc3c(c(=O)n1C2)COC(=O)[C@]3(O)CC [Irinotecan] | 1.66% | 48.98% | -3.53% | 53.79% |
| C/C(=C\c1csc(C)n1)[C@@H]1C[C@@H]2O[C@]2(C)CCC[C@H](C)[C@H](O)[C@@H](C)C(=O)C(C)(C)[C@@H](O)CC(=O)N1 [Ixabepilone] | -1.86% | 50.61% | -1.35% | 52.71% |
| CC(C)C[C@H](NC(=O)CNC(=O)c1cc(Cl)ccc1Cl)B1OC(=O)C(CC(=O)O)(CC(=O)O)O1 [Ixazomib citrate] | 72.42% | 16.31% | 72.94% | 15.87% |
| c1ccc2c(CCNc3ccc(Nc4ccncc4)cc3)c[nH]c2c1 [JNJ 26854165 (Serdemetan)] | 32.19% | 34.89% | 30.40% | 36.96% |
| Cn1cc(CNCC2CCN(c3ncc(C(=O)NO)cn3)CC2)c2ccccc21 [JNJ-26481585_Quisinostat] | -7.35% | 53.15% | -6.18% | 55.11% |

— PMC7588595, “Small-molecule active pharmaceutical ingredients of approved cancer therapeutics inhibit human aspartate/asparagine-β-hydroxylase” (Bioorganic & Medicinal Chemistry, 2020)
